Test results as given in US20210046079A1, “COMBINATION THERAPY TO IMPROVE BRAIN FUNCTION OR PROMOTE NEUROGENESIS FOR TREATING NEURODEGENERATIVE CONDITIONS” (UNIVERSITY OF CENTRAL FLORIDA RESEARCH FOUNDATION, INC., priority 2016, published 2021).
Entries after “also recorded” stand apart in the source; their conditions may differ. Counter-ions that a name gives are not always drawn.

Assays:
neural stem cells = assay: Cell counting after immunohistochemistry of postmortem brains (BrdU, βIII-tublin, GFAP); format: in vivo, mice
Description: Once mice reach the criterion for the pre-treatment behavioral testings, posiphen (25 mg/kg) was injected (s.c.) once a day for 7 consecutive days; followed by a combination of posiphen (25 mg/kg) and NBI-18 (0, 3, 10 mg/kg) was, injected (s.c.) once a day, for seven consecutive days; followed by another series of posiphen (25 mg/kg) injections (s.c.) once a day, for seven consecutive days. On the final two days of the combination injections, an injection of BrdU (100 mg/kg) was administered separately (s.c.) once per day.

Kidney or liver toxicity = details: in vivo
5xFAD mice = assay: Radial water maze test of 5xFAD mice; format: in vivo; details: for number of errors in the trial (memory), radial water maze: 5xFAD mice, compared to wild type
Description: B 6SJL-Tg(APPSwF1Lon,PSEN1*M146L*L286V)6799Vas/Mmjax transgenic (5xFAD) mice, which have 5 familial AD (FAD) mutant human genes, show pathological and behavioral signs of AD, including Aβdeposition at 2 months and progressive deficits in behavior. 5xFAD mice have successfully modeled behavior deficits seen in Alzheimer's disease in previous studies, and have been previously evaluated using the Morris water maze, open field test, and radial arm water maze. We purchased 2 males and 4 females heterozygous 5XFAD mice as breeders. We housed breeders in pairs of one male and 2 females. Gestation lasts 19-21 days. Pups (about 5-6 in each delivery) were weaned at (removed from breeding cage and separated) at 3 weeks of age. Tissue for genotyping was collected at the same time that ID numbers are applied. The genotyping was performed by PCR amplification of the SFAD gene. We used male 5xFAD mice (8months old) for this study.
The radial water maze test was performed using a maze with six arms (32 cm length and 19 cm width) radiated from the central circular region (36 cm diameter) placed in a circular pool (100 cm diameter). A clear round platform (9 cm diameter) was placed in one of the arms at 1.5 cm beneath the surface of the water, which was opacified with nontoxic white paint. The water was kept between 22-25° C. Surrounding the pool, a visual cue was placed at each end of the radial arms. Each session consists of four acquisition trials (T1-T4), followed by a 30-min delay interval and then a retention trial (T5). For each session, an escape platform was placed at the end of the goal arm, which was different between sessions. At the beginning of each trial, the mice were placed at the end of one of the remaining five non-goal arms. The mouse was positioned facing the wall, away from the center. Each trial lasts 60 seconds, during which an animal was allowed to swim in order to find the platform. The latency to locate the submerged platform and the number of entries to the non-goal arms were recorded as errors. […]

βAPP = details: Greig et al., U.S. Patent Pub. 2004/0024043 and 2004/0138282; cited from earlier work
cholinesterase = details: Greig et al., U.S. Patent Pub. 2004/0024043 and 2004/0138282; cited from earlier work
APP = details: AD model animals and patients; cited from earlier work

Compound	new neurons formed / neurogenesis in the brain (neural stem cells; AD model mice, NBI-18 row: without Posiphen treatment, combination row: vs untreated AD model group)	dose at which the effect on stem cell proliferation is maxed out (neural stem cells; brains of the animals used in the behavioral test)	neural stem cell proliferation / number (neural stem cells; brains of the animals used in the behavioral test, maleate)	dose range without detected kidney or liver toxicity (Kidney or liver toxicity)	number of errors in the trial (memory), radial water maze (5xFAD mice; NBI-18 3 mg/kg s.c. alone)	memory function / performance in memory tasks (5xFAD mice; AD model animals, summary statement, dose not stated)	βAPP levels in the brain (βAPP)	cholinesterase activity (cholinesterase)	number of errors in the trial (memory), radial water maze (5xFAD mice; Posiphen 25 mg/kg s.c. alone)	APP (APP)
CN1Cc2nc(N3CCNCC3)ncc2C1=O [NBI-18, 6-Methyl-2-(1-piperazinyl)-6,7-dihydro-5H-pyrrolo[3,4-d]-pyrimidin-5-one maleate]	does not reflect the increase of new neurons formed	3 mg/kg	significantly increases endogenous neural stem cells; also recorded: increased stem cell proliferation	up to 1000 mg/kg	showed significant memory deficit compare to the wild type	does not help to improve memory function	–	–	–	–
CN1CC[C@]2(C)c3cc(OC(=O)Nc4ccccc4)ccc3N(C)[C@H]12 [Posiphen, (+)-phenserine]	–	–	–	–	–	–	dramatically reduces βAPP levels in the brain	lacks cholinesterase activity	showed significant memory deficit compare to the wild type	reduction of APP
